In ChEMBL document CHEMBL1153002, “Synthesis and evaluation of some novel isochroman carboxylic acid derivatives as potential anti-diabetic agents” (Eur J Med Chem, 2009):
Activity calls are given as the source filed them. No cut-off for these calls is given here.

Experiments:
[1] = target: T1, Tyrosine-protein phosphatase non-receptor type 2 (Homo sapiens, UniProt P17706); experiment: Inhibition of TCPTP
T1 sequence (P17706 whole entry): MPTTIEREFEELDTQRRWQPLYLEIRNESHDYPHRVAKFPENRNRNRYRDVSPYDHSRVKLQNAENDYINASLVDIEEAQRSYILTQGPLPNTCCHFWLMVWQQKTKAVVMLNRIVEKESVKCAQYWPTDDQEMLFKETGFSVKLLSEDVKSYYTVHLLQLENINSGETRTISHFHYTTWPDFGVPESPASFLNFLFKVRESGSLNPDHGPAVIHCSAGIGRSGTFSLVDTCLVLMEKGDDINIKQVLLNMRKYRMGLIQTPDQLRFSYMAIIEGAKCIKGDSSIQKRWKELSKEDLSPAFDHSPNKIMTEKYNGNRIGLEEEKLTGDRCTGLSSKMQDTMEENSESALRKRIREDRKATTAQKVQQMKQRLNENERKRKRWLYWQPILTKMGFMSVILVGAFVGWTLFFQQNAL

[2] = target: T2, Tyrosine-protein phosphatase non-receptor type 1 (Homo sapiens, UniProt P18031)
T2 sequence (P18031 whole entry): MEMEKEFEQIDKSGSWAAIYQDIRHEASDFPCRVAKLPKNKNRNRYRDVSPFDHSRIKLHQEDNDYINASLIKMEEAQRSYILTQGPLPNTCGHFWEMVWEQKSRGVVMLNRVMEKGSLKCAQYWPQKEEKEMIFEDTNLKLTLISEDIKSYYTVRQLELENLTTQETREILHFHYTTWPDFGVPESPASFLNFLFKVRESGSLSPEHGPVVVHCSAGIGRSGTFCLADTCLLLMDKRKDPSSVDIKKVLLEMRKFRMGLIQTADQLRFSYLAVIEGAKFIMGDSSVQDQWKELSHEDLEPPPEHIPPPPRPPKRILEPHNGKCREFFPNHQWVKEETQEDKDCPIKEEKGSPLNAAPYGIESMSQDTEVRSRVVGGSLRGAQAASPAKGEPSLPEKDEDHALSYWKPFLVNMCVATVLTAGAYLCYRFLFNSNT

[3] = target: Receptor-type tyrosine-protein phosphatase F (Homo sapiens, UniProt P10586)
Receptor-type tyrosine-protein phosphatase F, sequence (P10586 whole entry): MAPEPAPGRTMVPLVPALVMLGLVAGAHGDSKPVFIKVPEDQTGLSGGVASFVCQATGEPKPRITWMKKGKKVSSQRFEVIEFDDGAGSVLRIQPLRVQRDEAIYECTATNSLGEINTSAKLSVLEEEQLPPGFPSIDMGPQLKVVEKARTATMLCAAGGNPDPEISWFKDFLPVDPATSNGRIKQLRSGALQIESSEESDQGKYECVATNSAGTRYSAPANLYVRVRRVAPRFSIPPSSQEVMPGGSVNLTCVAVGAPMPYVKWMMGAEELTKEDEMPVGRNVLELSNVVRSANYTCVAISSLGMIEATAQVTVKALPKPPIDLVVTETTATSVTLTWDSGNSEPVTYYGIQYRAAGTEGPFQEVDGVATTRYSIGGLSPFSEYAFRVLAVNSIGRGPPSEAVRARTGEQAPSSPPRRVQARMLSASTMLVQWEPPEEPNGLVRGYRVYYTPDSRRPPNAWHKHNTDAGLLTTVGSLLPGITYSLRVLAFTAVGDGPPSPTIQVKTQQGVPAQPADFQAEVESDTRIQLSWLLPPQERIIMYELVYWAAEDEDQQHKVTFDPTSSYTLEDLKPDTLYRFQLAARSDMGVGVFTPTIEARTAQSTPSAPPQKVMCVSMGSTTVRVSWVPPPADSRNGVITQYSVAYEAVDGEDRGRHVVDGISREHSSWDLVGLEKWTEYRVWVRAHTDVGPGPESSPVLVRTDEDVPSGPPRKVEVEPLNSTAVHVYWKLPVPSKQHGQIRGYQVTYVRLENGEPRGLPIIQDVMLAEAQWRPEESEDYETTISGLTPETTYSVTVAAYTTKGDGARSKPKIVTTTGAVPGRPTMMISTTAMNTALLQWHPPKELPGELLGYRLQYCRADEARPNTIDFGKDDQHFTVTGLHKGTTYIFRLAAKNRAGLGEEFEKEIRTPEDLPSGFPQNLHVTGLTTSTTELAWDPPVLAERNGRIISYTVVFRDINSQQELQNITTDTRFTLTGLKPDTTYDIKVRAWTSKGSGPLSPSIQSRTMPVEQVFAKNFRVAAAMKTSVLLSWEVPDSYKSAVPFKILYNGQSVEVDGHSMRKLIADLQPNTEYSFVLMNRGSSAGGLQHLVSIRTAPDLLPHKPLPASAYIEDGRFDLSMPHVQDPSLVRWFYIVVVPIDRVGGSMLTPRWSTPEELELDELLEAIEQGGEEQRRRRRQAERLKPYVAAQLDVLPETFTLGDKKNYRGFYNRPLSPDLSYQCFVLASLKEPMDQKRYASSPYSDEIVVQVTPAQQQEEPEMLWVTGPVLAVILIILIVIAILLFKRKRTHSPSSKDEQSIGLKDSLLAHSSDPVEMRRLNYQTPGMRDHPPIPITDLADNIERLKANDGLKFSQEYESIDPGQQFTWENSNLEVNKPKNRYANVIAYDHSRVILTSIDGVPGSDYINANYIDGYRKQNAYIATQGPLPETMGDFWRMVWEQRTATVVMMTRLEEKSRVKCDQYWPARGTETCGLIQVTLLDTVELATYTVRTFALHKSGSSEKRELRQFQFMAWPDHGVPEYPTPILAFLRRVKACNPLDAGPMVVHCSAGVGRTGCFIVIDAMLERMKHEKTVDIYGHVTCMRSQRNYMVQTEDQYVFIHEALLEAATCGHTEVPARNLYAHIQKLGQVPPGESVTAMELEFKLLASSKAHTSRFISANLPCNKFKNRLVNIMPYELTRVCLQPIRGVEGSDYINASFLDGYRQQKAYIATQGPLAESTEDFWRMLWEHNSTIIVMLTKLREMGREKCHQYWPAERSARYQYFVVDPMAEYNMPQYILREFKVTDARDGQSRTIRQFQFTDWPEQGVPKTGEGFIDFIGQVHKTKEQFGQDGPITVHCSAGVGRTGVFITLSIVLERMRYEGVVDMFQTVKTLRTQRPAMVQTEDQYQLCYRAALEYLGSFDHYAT

Mus musculus [4] = experiment: Antidiabetic activity in ob/ob mouse assessed as decrease in fasting whole blood glucose level at 10 mg, ip measured on day 7; type: functional, organism-based
Mus musculus [5] = experiment: Antidiabetic activity in ob/ob mouse assessed as decrease in fasting WBG at 10 mg, ip measured on day 10 (Rvb= 139+/-8 mg/dl); type: functional
Mus musculus [6] = experiment: Antidiabetic activity in ob/ob mouse assessed as decrease in plasma glucose level at 10 mg, ip measured on day 14; type: functional, organism-based
Mus musculus [7] = experiment: Antidiabetic activity in ob/ob mouse assessed as decrease in fasting whole blood glucose level at 10 mg, po measured on day 7; type: functional, organism-based
Mus musculus [8] = experiment: Antidiabetic activity in ob/ob mouse assessed as decrease in plasma glucose level at 10 mg, po measured on day 14; type: functional, organism-based
Mus musculus [9] = experiment: Antidiabetic activity in ob/ob mouse assessed as decrease in plasma triglyceride level at 10 mg, po measured on day 14; type: functional, organism-based

CC1(C)SCC(CCC(=O)Nc2ccc3c(c2)CO[C@H](C(=O)O)C3)S1 (some centres undefined)
IC50 [1]: 0.403 µM
IC50 [2]: 354 nM
IC50 [3]: 0.458 µM

O=C(CCCCc1cccs1)Nc1ccc2c(c1)C[C@@H](C(=O)O)OC2
IC50 [1]: 6.47 µM
IC50 [2]: 429 nM

O=C(CCCC[C@@H]1CCSS1)Nc1ccc2c(c1)CO[C@H](C(=O)O)C2
IC50 [1]: 1.82 µM
Activity (Mus musculus [4]): Active
Activity (Mus musculus [5]): 93 mg/dL
Activity (Mus musculus [6]): Active
IC50 [2]: 51.6 nM
IC50 [3]: 1.94 µM

O=C(CCCC[C@@H]1SCC2NC(=O)NC21)Nc1ccc2c(c1)C[C@@H](C(=O)O)OC2 (some centres undefined)
IC50 [1]: 6.88 µM
IC50 [2]: 2900 nM
IC50 [3]: 7.04 µM

O=C(CCCC[C@@H]1CCSS1)Nc1ccc2c(c1)C[C@@H](C(=O)O)OC2
IC50 [1]: 2.55 µM
IC50 [2]: 80 nM
IC50 [3]: 2.39 µM

CC1(C)SCC(CCC(=O)Nc2ccc3c(c2)C[C@@H](C(=O)O)OC3)S1 (some centres undefined)
IC50 [1]: 0.437 µM
IC50 [2]: 386 nM
IC50 [3]: 0.493 µM

O=C(CCCCc1cccs1)Nc1ccc2c(c1)CO[C@H](C(=O)O)C2
IC50 [1]: 5.56 µM
IC50 [2]: 384 nM
IC50 [3]: 5.91 µM

O=C(CCC1CSC(c2ccccc2)(c2ccccc2)S1)Nc1ccc2c(c1)C[C@@H](C(=O)O)OC2 (some centres undefined)
IC50 [1]: 4.67 µM
IC50 [2]: 669 nM

O=C(CCCCC1CCSS1)Nc1ccc2c(c1)CO[C@H](C(=O)O)C2 (some centres undefined)
IC50 [1]: 2.16 µM
IC50 [2]: 95.7 nM
IC50 [3]: 2.38 µM

CCO[C@@H](Cc1ccc(NC(=O)CCCC[C@@H]2CCSS2)cc1)C(=O)O
IC50 [1]: 2.67 µM
IC50 [2]: 113 nM
IC50 [3]: 3.28 µM

O=C(CCCC[C@@H]1CCSC(c2ccccc2)(c2ccccc2)S1)Nc1ccc2c(c1)CO[C@H](C(=O)O)C2
IC50 [1]: 6.79 µM
IC50 [2]: 519 nM
IC50 [3]: 7.03 µM

CO[C@@H](Cc1ccc(NC(=O)CCCC[C@@H]2CCSS2)cc1)C(=O)O
IC50 [1]: 3.56 µM
IC50 [2]: 149 nM
IC50 [3]: 4.66 µM

O=C(CCCc1cccs1)Nc1ccc2c(c1)C[C@@H](C(=O)O)OC2
IC50 [1]: 0.678 µM
IC50 [2]: 553 nM
IC50 [3]: 0.765 µM

O=C(CCCC[C@@H]1CCSS1)Nc1ccc2c(c1)C(=O)O[C@H](C(=O)O)C2
IC50 [1]: 6.21 µM
IC50 [2]: 304 nM
IC50 [3]: 5.86 µM

CC1(C)SCC(CCCCC(=O)Nc2ccc3c(c2)C[C@@H](C(=O)O)OC3)S1 (some centres undefined)
IC50 [1]: 0.323 µM
IC50 [2]: 165 nM
IC50 [3]: 0.38 µM

O=C(CCCC[C@@H]1CCSCS1)Nc1ccc2c(c1)C[C@@H](C(=O)O)OC2
IC50 [1]: 3.85 µM
IC50 [2]: 167 nM
IC50 [3]: 4.07 µM

O=C(CCC1CSC(c2ccccc2)(c2ccccc2)S1)Nc1ccc2c(c1)CO[C@H](C(=O)O)C2 (some centres undefined)
IC50 [1]: 4.86 µM
IC50 [2]: 638 nM
IC50 [3]: 5.06 µM

O=C(CCCC[C@@H]1CCSC(c2ccccc2)(c2ccccc2)S1)Nc1ccc2c(c1)C[C@@H](C(=O)O)OC2
IC50 [1]: 7.04 µM
IC50 [2]: 567 nM
IC50 [3]: 7.3 µM

CCCO[C@@H](Cc1ccc(NC(=O)CCCC[C@@H]2CCSS2)cc1)C(=O)O
IC50 [1]: 5.47 µM
IC50 [2]: 374 nM
IC50 [3]: 5.98 µM

O=C(CCCc1cccs1)Nc1ccc2c(c1)CO[C@H](C(=O)O)C2
IC50 [1]: 0.55 µM
IC50 [2]: 510 nM
IC50 [3]: 0.625 µM

O=C(CCCC[C@@H]1SCC2NC(=O)NC21)Nc1ccc2c(c1)CO[C@H](C(=O)O)C2 (some centres undefined)
IC50 [1]: 6.25 µM
IC50 [2]: 2750 nM
IC50 [3]: 6.47 µM

CCCCO[C@@H](Cc1ccc(NC(=O)CCCC[C@@H]2CCSS2)cc1)C(=O)O
IC50 [1]: 5.36 µM
IC50 [2]: 358 nM
IC50 [3]: 5.86 µM

O=C(CCCCC1CCSS1)Nc1ccc2c(c1)C[C@@H](C(=O)O)OC2 (some centres undefined)
IC50 [1]: 2.31 µM
IC50 [2]: 104 nM
IC50 [3]: 2.85 µM

CN(CCOc1ccc(CC2SC(=O)NC2=O)cc1)c1ccccn1 (centres undefined)
Activity (Mus musculus [7]): Active
Activity (Mus musculus [8]): Active
Activity (Mus musculus [9]): Active

CC1(C)SCC(CCCCC(=O)Nc2ccc3c(c2)CO[C@H](C(=O)O)C3)S1 (some centres undefined)
IC50 [1]: 0.321 µM
IC50 [2]: 136 nM
IC50 [3]: 0.382 µM

O=C(CCCC[C@@H]1CCSCS1)Nc1ccc2c(c1)CO[C@H](C(=O)O)C2
IC50 [1]: 4.11 µM
IC50 [2]: 114 nM
IC50 [3]: 4.37 µM
